Assay results from ChEMBL document CHEMBL5385929, “Tabersonine Enhances Olaparib Sensitivity through FHL1-Mediated Epithelial-Mesenchymal Transition in an Ovarian Tumor” (J Nat Prod, 2024).
Active and inactive are the calls of the source. No cut-off for these calls is given here.

Legend:
A2780 [1] = test: Antiproliferative activity against human A2780 cells assessed as inhibition of cell viability measured after 48 hrs by CCK8 assay; assay type: functional, cell-based; details: A2780, 48 h
A2780 [2] = test: Potentiation of olaparib sensitivity in human A2780 cells assessed as inhibition of cell viability at 10 uM measured after 5 days in presence of olaparib by CCK8 assay; assay type: functional, cell-based; details: time 5.0 day
A2780 [3] = test: Potentiation of olaparib sensitivity in human A2780 cells assessed as inhibition of colony formation at 10 uM incubated for 48 hrs in presence of olaparib followed by drug wash-out and incubated in fresh medium for 2 weeks by crystal violet staining based analysis; assay type: functional, cell-based
SK-OV-3 [4] = test: Potentiation of olaparib sensitivity in human SK-OV-3 cells assessed as induction of DNA damage response by measuring increase in tail moment at 10 uM measured after 48 hrs in presence of olaparib by alkaline comet assay; assay type: functional, cell-based
A2780 [5] = test: Downregulation of EMT signalling in human A2780 cells assessed as upregulation of E-cadherin protein expression at 10 uM by western blot analysis; assay type: functional, cell-based
A2780 [6] = test: Downregulation of EMT signalling in human A2780 cells assessed as downregulation of vimentin protein expression at 10 uM by western blot analysis; assay type: functional, cell-based
SK-OV-3 [7] = test: Downregulation of EMT signalling in human SK-OV-3 cells assessed as upregulation of E-cadherin protein expression at 10 uM by western blot analysis; assay type: functional, cell-based
SK-OV-3 [8] = test: Downregulation of EMT signalling in human SK-OV-3 cells assessed as downregulation of N-cadherin protein expression at 10 uM by western blot analysis; assay type: functional, cell-based
A2780 [9] = test: Potentiation of olaparib sensitivity in human A2780 cells assessed as downregulation of EMT signaling by measuring upregulation of E-cadherin protein expression at 10 uM in presence of olaparib by western blot analysis; assay type: functional, cell-based
A2780 [10] = test: Potentiation of olaparib sensitivity in human A2780 cells assessed as downregulation of EMT signaling by measuring downregulation of vimentin protein expression at 10 uM in presence of olaparib by western blot analysis; assay type: functional, cell-based
A2780 [11] = test: Inhibition of cell invasion in human A2780 cells at 10 uM measured after 48 hrs by Transwell assay; assay type: functional, cell-based
A2780 [12] = test: Potentiation of olaparib sensitivity in human A2780 cells assessed as inhibition of cell migration at 10 uM measured after 24 to 48 hrs in presence of olaparib by wound healing assay; assay type: functional, cell-based; details: time 24-48 hrs
SK-OV-3 [13] = test: Upregulation of FHL1 protein expression in human SK-OV-3 cells by western blot analysis; assay type: functional, cell-based; details: dose 5-20 µM
A2780 [14] = test: Increase in FHL1 protein stability in human A2780 cells at 10 uM measured after 6 to 24 hrs in presence of cycloheximide by CHX chase assay based western blot analysis; assay type: functional, cell-based; details: time 6-24 hrs
SK-OV-3 [15] = test: Downregulation of EMT signalling in human SK-OV-3 cells transfected with shFHL1-1 RNA assessed as E-cadherin protein expression at 10 uM by western blot analysis; assay type: functional, cell-based
SK-OV-3 [16] = test: Downregulation of EMT signalling in human SK-OV-3 cells transfected with shFHL1-1 RNA assessed as N-cadherin protein expression at 10 uM by western blot analysis; assay type: functional, cell-based
SK-OV-3 [17] = test: Downregulation of EMT signalling in human SK-OV-3 cells transfected with shFHL1-2 RNA assessed as vimentin protein expression at 10 uM by western blot analysis; assay type: functional, cell-based
A2780 [18] = test: Inhibition of cell invasion in human A2780 cells transfected with shFHL1-2 RNA at 10 uM measured after 48 hrs by Transwell assay; assay type: functional, cell-based
A2780 [19] = test: Inhibition of cell migration in human A2780 cells transfected with shFHL1-2 RNA at 10 uM measured after 24 to 48 hrs by wound healing assay; assay type: functional, cell-based; details: time 24-48 hrs
SK-OV-3 [20] = test: Inhibition of cell migration in human SK-OV-3 cells transfected with shFHL1-2 RNA at 10 uM measured after 24 to 48 hrs by wound healing assay; assay type: functional, cell-based; details: time 24-48 hrs
A2780 [21] = test: Potentiation of olaparib sensitivity in human A2780 cells transfected with shFLH1-1 RNA assessed as downregulation of EMT signaling by measuring E-cadherin protein expression at 10 uM in presence of olaparib by western blot analysis; assay type: functional, cell-based
SK-OV-3 [22] = test: Potentiation of olaparib sensitivity in human SK-OV-3 cells transfected with shFLH1-1 RNA assessed as downregulation of EMT signaling by measuring E-cadherin protein expression at 10 uM in presence of olaparib by western blot analysis; assay type: functional, cell-based
SK-OV-3 [23] = test: Potentiation of olaparib sensitivity in human SK-OV-3 cells transfected with shFLH1-2 RNA assessed as downregulation of EMT signaling by measuring vimentin protein expression at 10 uM in presence of olaparib by western blot analysis; assay type: functional, cell-based
A2780 [24] = test: Potentiation of olaparib sensitivity in human A2780 cells transfected with shFHL1-2 RNA assessed as inhibition of cell invasion at 10 uM measured after 48 hrs in presence of olaparib by Transwell assay; assay type: functional, cell-based
SK-OV-3 [25] = test: Potentiation of olaparib sensitivity in human SK-OV-3 cells transfected with shFHL1-1 RNA assessed as inhibition of cell migration at 10 uM measured after 24 to 48 hrs in presence of olaparib by wound healing assay; assay type: functional, cell-based; details: time 24-48 hrs
A2780 [26] = test: Potentiation of olaparib-induced antitumor activity against shFHL1-1 RNA-transfected human A2780 cells xenografted in BALB/c mouse assessed as decrease in tumor volume at 15 mg/kg, ip co-administered with olaparib for 2 weeks; assay type: functional, organism-based
Mus musculus [27] = test: Potentiation of olaparib sensitivity in BALB/c mouse xenografted with shNC RNA-transfected human A2780 cells assessed as upregulation of E-cadherin protein expression in tumor at 15 mg/kg, ip co-administered with olaparib for 2 weeks by western blot analysis; assay type: functional, organism-based
Mus musculus [28] = test: Potentiation of olaparib sensitivity in BALB/c mouse xenografted with shNC RNA-transfected human A2780 cells assessed as upregulation of FHL1 protein expression in tumor at 15 mg/kg, ip co-administered with olaparib for 2 weeks by western blot analysis; assay type: functional, organism-based
Mus musculus [29] = test: Potentiation of olaparib sensitivity in BALB/c mouse xenografted with shNC RNA-transfected human A2780 cells assessed as downregulation of N-cadherin protein expression in tumor at 15 mg/kg, ip co-administered with olaparib for 2 weeks by western blot analysis; assay type: functional, organism-based
Mus musculus [30] = test: Potentiation of olaparib sensitivity in BALB/c mouse xenografted with shNC RNA-transfected human A2780 cells assessed as downregulation of vimentin protein expression in tumor at 15 mg/kg, ip co-administered with olaparib for 2 weeks by western blot analysis; assay type: functional, organism-based
Mus musculus [31] = test: Potentiation of olaparib sensitivity in BALB/c mouse xenografted with shFHL1-1 RNA-transfected human A2780 cells assessed as downregulation of vimentin protein expression in tumor at 15 mg/kg, ip co-administered with olaparib for 2 weeks by western blot analysis; assay type: functional, organism-based
A2780 [32] = test: Potentiation of olaparib-induced antitumor activity against shNC RNA-transfected human A2780 cells xenografted in BALB/c mouse assessed as decrease in lung metastatic nodules at 15 mg/kg, ip co-administered with olaparib every other day from day 6 of tumor cell inoculation and measured on day 30 post-tumor cell inoculation by H and E staining based bright field microscopic analysis; assay type: functional, organism-based; details: time 24.0 day

Question: Which IC50 (A2780 [1]) does the source give for `CC[C@]12C=CCN3CC[C@]4(C(=C(C(=O)OC)C1)Nc1ccccc14)[C@@H]32` [TABERSONINE] here?
Answer: 18 µM

Question: What about the Activity (A2780 [2]) of the same compound?
Answer: Active

Question: And the Activity (A2780 [3])?
Answer: Active

Question: What about the Activity (SK-OV-3 [4]) of the same compound?
Answer: Active

Question: And the inhibition (A2780 [5])?
Answer: Active

Question: What about the inhibition (A2780 [6]) of the same compound?
Answer: Active

Question: And the inhibition (SK-OV-3 [7])?
Answer: Active

Question: And the inhibition (SK-OV-3 [8])?
Answer: Active

Question: And the Activity (A2780 [9])?
Answer: Active

Question: What about the Activity (A2780 [10]) of the same compound?
Answer: Active

Question: And the inhibition (A2780 [11])?
Answer: Active

Question: And the Activity (A2780 [12])?
Answer: Active

Question: What about the Activity (SK-OV-3 [13]) of the same compound?
Answer: Dose-Dependent Effect

Question: What about the Activity (A2780 [14]) of the same compound?
Answer: Active

Question: And the inhibition (SK-OV-3 [15])?
Answer: inactive

Question: And the inhibition (SK-OV-3 [16])?
Answer: inactive

Question: What about the inhibition (SK-OV-3 [17]) of the same compound?
Answer: inactive

Question: What about the inhibition (A2780 [18]) of the same compound?
Answer: inactive

Question: And the inhibition (A2780 [19])?
Answer: inactive

Question: And the inhibition (SK-OV-3 [20])?
Answer: inactive

Question: And the Activity (A2780 [21])?
Answer: inactive

Question: What about the Activity (SK-OV-3 [22]) of the same compound?
Answer: inactive

Question: What about the Activity (SK-OV-3 [23]) of the same compound?
Answer: inactive

Question: What about the Activity (A2780 [24]) of the same compound?
Answer: inactive

Question: What about the Activity (SK-OV-3 [25]) of the same compound?
Answer: inactive

Question: What about the Activity (A2780 [26]) of the same compound?
Answer: inactive

Question: And the Activity (Mus musculus [27])?
Answer: Active

Question: What about the Activity (Mus musculus [28]) of the same compound?
Answer: Active

Question: And the Activity (Mus musculus [29])?
Answer: Active

Question: What about the Activity (Mus musculus [30]) of the same compound?
Answer: Active

Question: What about the Activity (Mus musculus [31]) of the same compound?
Answer: inactive

Question: What about the Activity (A2780 [32]) of the same compound?
Answer: Active
